Some test systems named below: OVCAR-3 ovarian; A498 renal; HCT-15 colon; KM12 colon; OVCAR-5 ovarian; UACC-257 melanoma; SF-268 CNS; ACHN renal; U251 CNS; M14 melanoma; NCI/ADR-RES ovarian; OVCAR-8 ovarian; SW-620 colon; CAKI-1 renal; OVCAR-4 ovarian; NCI-H226 lung; RPMI-8226 leukemia; MCF7 breast; HCC-2998 colon; SNB-19 CNS.
What all share (assay): NCI anticancer screen, dose series, 48 h

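Test compounds were applied to cells in 96-well plates for 48 hours at 5 doses. Definition used: TGI = concentration required for complete inhibition of growth.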

Take `O=C1NC(=O)/C(=C/c2ccc(S(=O)(=O)N/N=C\C(O)C(O)C(O)C(O)CO)cc2)N1` (centres undefined): the TGI in the experiment with OVCAR-3 ovarian, with A498 renal, in the experiment on HCT-15 colon, in the experiment with KM12 colon, in the experiment on OVCAR-5 ovarian and in the experiment on UACC-257 melanoma was above 100 µM throughout. Moreover, the TGI in the experiment with SF-268 CNS, with ACHN renal, in the experiment on U251 CNS, in the experiment with M14 melanoma, with NCI/ADR-RES ovarian and with OVCAR-8 ovarian was above 100 µM throughout. For the same compound, the TGI with SW-620 colon, in the experiment on CAKI-1 renal, with OVCAR-4 ovarian, with NCI-H226 lung, in the experiment on RPMI-8226 leukemia and with MCF7 breast was above 100 µM throughout. The TGI in the experiment on HCC-2998 colon and with SNB-19 CNS was above 100 µM in each case.

Regarding `CCCCCCCCCCCCOc1ccc(/C=C/C2=[N+](CCCl)CCO2)cc1`, the TGI with OVCAR-3 ovarian is 37.9 µM; with A498 renal it was above 100 µM; in the experiment with HCT-15 colon, above 100 µM; with KM12 colon it was above 100 µM; in the experiment with OVCAR-5 ovarian it was above 100 µM; in the experiment with UACC-257 melanoma it was above 100 µM. In addition, the TGI in the experiment with ACHN renal was above 100 µM; in the experiment on U251 CNS, 58.4 µM; in the experiment on M14 melanoma, above 100 µM; in the experiment on NCI/ADR-RES ovarian it was above 100 µM; in the experiment on OVCAR-8 ovarian it was above 100 µM; in the experiment on SW-620 colon, above 100 µM. The TGI in the experiment on CAKI-1 renal, with OVCAR-4 ovarian, in the experiment with NCI-H226 lung, in the experiment with RPMI-8226 leukemia, with MCF7 breast and with HCC-2998 colon was above 100 µM throughout. The compound also displayed a TGI in the experiment with SNB-19 CNS above 100 µM.

Regarding `CC(C)C(C/C=C1/CC(CO)(COC(=O)c2ccccc2)OC1=O)C(C)C` (centres undefined), the TGI stood at 32.2 µM with OVCAR-3 ovarian; 39.7 µM with A498 renal; 36.9 µM in the experiment with HCT-15 colon; 31.7 µM in the experiment with KM12 colon; 31.2 µM in the experiment on OVCAR-5 ovarian; 62.4 µM in the experiment with UACC-257 melanoma. The TGI is 31.8 µM with SF-268 CNS; 28.2 µM in the experiment on ACHN renal; 36.1 µM in the experiment on U251 CNS; 32.2 µM in the experiment with M14 melanoma; 38.8 µM with NCI/ADR-RES ovarian; 48.5 µM with OVCAR-8 ovarian. For the same compound, the TGI stood at 31.9 µM in the experiment with SW-620 colon; 27.8 µM with CAKI-1 renal; 30 µM in the experiment with OVCAR-4 ovarian; 32.4 µM in the experiment on NCI-H226 lung; 39 µM in the experiment with MCF7 breast; 40.8 µM with HCC-2998 colon. Further, the TGI in the experiment with SNB-19 CNS was 31.1 µM.

With `COC(=O)[C@@H](Cc1ccccc1)N1O[C@]12CCCC[C@@H]2NC(=O)OC(C)(C)C` (some centres undefined), the TGI is 57.1 µM with OVCAR-3 ovarian; above 100 µM in the experiment on A498 renal; 33.5 µM in the experiment on HCT-15 colon; above 100 µM with KM12 colon; 71.7 µM in the experiment on OVCAR-5 ovarian; above 100 µM in the experiment on UACC-257 melanoma. The TGI was found to be 34.9 µM in the experiment with SF-268 CNS; 32.5 µM with ACHN renal; 77.9 µM with U251 CNS; 50.9 µM in the experiment on M14 melanoma; 52.4 µM in the experiment with NCI/ADR-RES ovarian; 29.3 µM in the experiment with SW-620 colon. Moreover, the TGI was 90.4 µM in the experiment with CAKI-1 renal; above 100 µM in the experiment with OVCAR-4 ovarian; above 100 µM in the experiment on NCI-H226 lung; above 100 µM with RPMI-8226 leukemia; 28.5 µM in the experiment on MCF7 breast; above 100 µM in the experiment with HCC-2998 colon. The TGI in the experiment on SNB-19 CNS was above 100 µM.

As to `CN(C)S(=O)(=O)n1cnc(CO)c1`, the TGI in the experiment on OVCAR-3 ovarian, with A498 renal, in the experiment on HCT-15 colon, in the experiment with KM12 colon, with OVCAR-5 ovarian and in the experiment with UACC-257 melanoma was above 100 µM in each case. The TGI with SF-268 CNS, with ACHN renal, in the experiment with U251 CNS, in the experiment on M14 melanoma, with NCI/ADR-RES ovarian and with SW-620 colon was above 100 µM throughout. Moreover, the TGI with CAKI-1 renal, with OVCAR-4 ovarian, in the experiment on NCI-H226 lung, with RPMI-8226 leukemia, with MCF7 breast and with HCC-2998 colon was above 100 µM in each case. This compound also had a TGI in the experiment on SNB-19 CNS above 100 µM.

In the case of `O=C(O)CN1CCN(CC(=O)N2CCN(C(=O)OCc3ccccc3)CC2)CCN(CC(=O)O)CCN(CC(=O)N2CCN(C(=O)OCc3ccccc3)CC2)CC1`, the TGI in the experiment on OVCAR-3 ovarian, with A498 renal, in the experiment with HCT-15 colon, with KM12 colon, in the experiment on OVCAR-5 ovarian and with UACC-257 melanoma was above 100 µM each time. For the same compound, the TGI in the experiment on ACHN renal, in the experiment with U251 CNS, with M14 melanoma, with NCI/ADR-RES ovarian, in the experiment on OVCAR-8 ovarian and in the experiment on SW-620 colon was above 100 µM each time. The TGI in the experiment on CAKI-1 renal, in the experiment with OVCAR-4 ovarian, in the experiment with NCI-H226 lung, in the experiment on RPMI-8226 leukemia, in the experiment with MCF7 breast and in the experiment with HCC-2998 colon was above 100 µM in each case. Also, the TGI in the experiment with SNB-19 CNS is above 100 µM.

Consider `COC(=O)C1=CN(C2CCCCC2)C2(c3ccccc3)c3ccccc3C(=O)OC(=O)C12` (centres undefined), for which the TGI with OVCAR-3 ovarian, with A498 renal, in the experiment with HCT-15 colon, in the experiment on KM12 colon, with OVCAR-5 ovarian and with UACC-257 melanoma was above 100 µM in each case. For the same compound, the TGI in the experiment with SF-268 CNS, in the experiment with ACHN renal, in the experiment with U251 CNS, in the experiment on M14 melanoma, with NCI/ADR-RES ovarian and in the experiment with OVCAR-8 ovarian was above 100 µM throughout. Further, the TGI with SW-620 colon, in the experiment on CAKI-1 renal, in the experiment on OVCAR-4 ovarian, in the experiment on NCI-H226 lung, with MCF7 breast and in the experiment with HCC-2998 colon was above 100 µM each time. For the same compound, the TGI in the experiment with SNB-19 CNS is above 100 µM.
